The values that follow are results of earlier work, collected in PubChem BioAssay AID493017 (Abbott Labs, 1994).

SMILES strings stand for the structures.

In this data set the target is Platelet-derived growth factor receptor alpha (Homo sapiens) (UniProt P16234). The experiment in a line: PubChem AID 493017. The settings on record: WOMBAT literature affinities, multiple human targets; PDGFR; gene PDGFRA; NCBI gene 5156.
Chain of Platelet-derived growth factor receptor alpha (Homo sapiens) (P16234 whole entry, looked up): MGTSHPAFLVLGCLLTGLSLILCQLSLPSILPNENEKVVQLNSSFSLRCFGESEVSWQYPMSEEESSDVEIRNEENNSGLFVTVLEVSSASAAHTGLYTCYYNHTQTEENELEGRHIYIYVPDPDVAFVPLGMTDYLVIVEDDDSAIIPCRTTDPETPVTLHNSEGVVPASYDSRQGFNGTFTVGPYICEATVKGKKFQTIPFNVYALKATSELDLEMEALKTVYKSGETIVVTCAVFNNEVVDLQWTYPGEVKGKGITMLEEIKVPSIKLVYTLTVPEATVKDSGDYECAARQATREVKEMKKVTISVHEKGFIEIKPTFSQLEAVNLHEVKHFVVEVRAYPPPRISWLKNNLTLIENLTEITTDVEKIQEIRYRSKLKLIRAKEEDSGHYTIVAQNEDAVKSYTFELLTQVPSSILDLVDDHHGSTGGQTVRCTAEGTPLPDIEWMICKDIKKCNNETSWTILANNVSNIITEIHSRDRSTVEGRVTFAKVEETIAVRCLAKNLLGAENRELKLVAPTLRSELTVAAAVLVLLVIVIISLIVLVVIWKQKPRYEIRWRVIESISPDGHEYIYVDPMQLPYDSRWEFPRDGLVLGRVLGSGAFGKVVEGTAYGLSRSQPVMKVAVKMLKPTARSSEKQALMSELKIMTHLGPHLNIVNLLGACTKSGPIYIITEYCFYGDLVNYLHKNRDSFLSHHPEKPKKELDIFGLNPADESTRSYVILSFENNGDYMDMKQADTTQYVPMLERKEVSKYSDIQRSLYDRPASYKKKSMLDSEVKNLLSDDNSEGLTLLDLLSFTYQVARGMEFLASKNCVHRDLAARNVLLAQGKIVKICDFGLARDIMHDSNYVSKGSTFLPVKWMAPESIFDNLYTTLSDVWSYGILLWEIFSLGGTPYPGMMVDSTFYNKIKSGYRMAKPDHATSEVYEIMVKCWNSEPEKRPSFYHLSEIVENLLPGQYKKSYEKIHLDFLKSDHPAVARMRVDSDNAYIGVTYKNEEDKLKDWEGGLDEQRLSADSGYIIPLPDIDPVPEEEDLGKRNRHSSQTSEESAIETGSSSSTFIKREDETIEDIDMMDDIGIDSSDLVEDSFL
As for `COc1cc2cc(-c3c[nH]c4ccccc34)cnc2cc1OC`, the IC50 (commonly the point on the concentration scale where inhibition reaches its midpoint) is 245 nM.

On to `Fc1cc2cc(-c3ccsc3)cnc2cc1F`, for which the 50% inhibitory concentration (IC50) is 2830 nM.

Consider `COc1ccc(C=Cc2cnc3cc(OC)c(OC)cc3c2)cc1`, for which the IC50 was 54.8 nM.

For `c1ccc2ncc(-c3c[nH]c4ccccc34)cc2c1`, the IC50 was 4000 nM.

With `COc1cc2cc(-c3ccc(=O)[nH]c3)cnc2cc1OC`, the IC50 was 21.2 nM.

Take `COc1ccc(-c2cnc3cc(OC)c(OC)cc3c2)cc1`: the IC50 was 3.87 nM.

As for `Oc1cc2cc(-c3cccnc3)cnc2cc1O`, the IC50 is 7750 nM.

Take `COc1cc2cc(NCc3ccccc3)cnc2cc1OC`: the half-inhibitory concentration (IC50) was 40 nM.

For the molecule `COc1cc2cccnc2cc1OC`, the IC50 is 24500 nM.

With `COc1ccc(CCc2cnc3cc(OC)c(OC)cc3c2)cc1`, the concentration for half-maximal inhibition (IC50) was 400 nM.

Turning to `COc1ccc(-c2cnc3cc(OC)c(OC)cc3c2)s1`, the concentration for half-maximal inhibition (IC50) was 158 nM.

For the molecule `COc1cccc(-c2cnc3cc(OC)c(OC)cc3c2)c1`, the half-inhibitory concentration (IC50) was 1410 nM.

Take `COc1cc2cc(OCc3ccccc3)cnc2cc1OC`: the concentration for half-maximal inhibition (IC50) was 52.9 nM.

In the case of `COc1ccc(-c2cnc3cc(OC)c(OC)cc3c2)cc1C`, the half-inhibitory concentration (IC50) was 200 nM.

For the molecule `COc1cc2cc(C#Cc3ccccc3)cnc2cc1OC`, the IC50 is 31.6 nM.

On to `COc1cc2cc(C#CC3CCCCC3)cnc2cc1OC`, for which the 50% inhibitory concentration (IC50) is 548 nM.

In the case of `COc1cc2cc(CCC3CCCCC3)cnc2cc1OC`, the IC50 was 387 nM.

Turning to `COc1cc2cc(-c3ccc(O)cc3)cnc2cc1OC`, the IC50 was 24.5 nM.

As for `COc1cc2cc(-c3ccccc3)cnc2cc1OC`, the IC50 is 102 nM.

As for `COc1cc2cc(C3=CCCC3)cnc2cc1OC`, the half-maximal inhibitory concentration (IC50) was 28.3 nM.

Turning to `COc1cc2cc(-c3ccc(C(=O)O)cc3)cnc2cc1OC`, the IC50 is 1870 nM.

Consider `COc1cc2cc(-c3ccc(Cl)c(Cl)c3)cnc2cc1OC`, for which the IC50 was 2650 nM.

For the molecule `COc1cc2cc(C3CCCC3)cnc2cc1OC`, the IC50 was 224 nM.
